Data taken from the supplement of paper PMC10307832.

Assays:
Test in all cases: relative viability (nuclei count vs DMSO), 5 days (fraction); higher = more cells survive
RO-3306 + Palbociclib = compound: C1=CC2=C(C=CC(=C2)C=C3C(=O)NC(=NCC4=CC=CS4)S3)N=C1 [RO-3306] + CC(=O)c1c(C)c2cnc(Nc3ccc(N4CCNCC4)cn3)nc2n(C2CCCC2)c1=O [Palbociclib] (partner 0.5 µM)
Procedure, shortened: (§1)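 Lung cancer cell lines in 1536-well plates were dosed by pin tool the day after seeding, either with one drug alone or with a fixed anchor-drug dose plus five library-drug doses (not always all listed) in √10 steps. After 5 days, cells were fixed and their nuclei stained in one step (final 0.05% Triton X-100, 1% formaldehyde, 1 ug/ml Hoechst), then counted on 4× images. Relative viability is the nuclei count in treated wells divided by that in vehicle wells. Values are medians of duplicate plates.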

RO-3306 + Lapatinib = compound: C1=CC2=C(C=CC(=C2)C=C3C(=O)NC(=NCC4=CC=CS4)S3)N=C1 [RO-3306] + CS(=O)(=O)CCNCc1ccc(-c2ccc3ncnc(Nc4ccc(OCc5cccc(F)c5)c(Cl)c4)c3c2)o1 [Lapatinib] (partner 2 µM)
Procedure, shortened: as §1

[1] = compound: O=S(=O)(c1ccccc1)N(CC(F)(F)F)c1ccc(C(O)(C(F)(F)F)C(F)(F)F)cc1 + CC(C)C[C@H](NC(=O)[C@H](Cc1ccccc1)NC(=O)c1cnccn1)B(O)O [Bortezomib] (partner 0.002 µM)
Procedure, shortened: as §1

[2] = compound: O=S(=O)(c1ccccc1)N(CC(F)(F)F)c1ccc(C(O)(C(F)(F)F)C(F)(F)F)cc1 + CS(=O)(=O)CCNCc1ccc(-c2ccc3ncnc(Nc4ccc(OCc5cccc(F)c5)c(Cl)c4)c3c2)o1 [Lapatinib] (partner 2 µM)
Procedure, shortened: as §1

[3] = compound: O=S(=O)(c1ccccc1)N(CC(F)(F)F)c1ccc(C(O)(C(F)(F)F)C(F)(F)F)cc1 + CS(=O)(=O)N1CCN(Cc2cc3nc(-c4cccc5[nH]ncc45)nc(N4CCOCC4)c3s2)CC1 [Pictilisib] (partner 1 µM)
Procedure, shortened: as §1

| Cell Line | relative viability (RO-3306 + Palbociclib; first compound 0.01 µM) | relative viability (RO-3306 + Palbociclib; first compound 0.03162 µM) | relative viability (RO-3306 + Palbociclib; first compound 0.1 µM) | relative viability (RO-3306 + Palbociclib; first compound 0.3162 µM) | relative viability (RO-3306 + Palbociclib; first compound 1 µM) | relative viability (RO-3306 + Lapatinib; first compound 0.01 µM) | relative viability (RO-3306 + Lapatinib; first compound 0.03162 µM) | relative viability (RO-3306 + Lapatinib; first compound 0.1 µM) | relative viability (RO-3306 + Lapatinib; first compound 0.3162 µM) | relative viability (RO-3306 + Lapatinib; first compound 1 µM) | relative viability ([1]; first compound 0.8 µM) | relative viability ([1]; first compound 2.53 µM) | relative viability ([1]; first compound 8 µM) | relative viability ([2]; first compound 0.8 µM) | relative viability ([2]; first compound 2.53 µM) | relative viability ([2]; first compound 8 µM) | relative viability ([3]; first compound 0.8 µM) | relative viability ([3]; first compound 2.53 µM) | relative viability ([3]; first compound 8 µM) |
| --- | --- | --- | --- | --- | --- | --- | --- | --- | --- | --- | --- | --- | --- | --- | --- | --- | --- | --- | --- |
| NCI-H650 | 0.32 | 0.325 | 0.332 | 0.328 | 0.293 | 0.867 | 0.728 | 0.774 | 1.06 | 1.01 | 0.832 | 0.776 | 0.823 | 1.24 | 0.804 | 1.12 | 0.913 | 0.842 | 0.885 |
| NCI-H1650 | 0.423 | 0.246 | 0.285 | 0.321 | 0.274 | 0.595 | 0.632 | 0.695 | 1.03 | 0.683 | 0.203 | 0.187 | 0.194 | 0.871 | 0.735 | 0.723 | 0.69 | 0.588 | 0.534 |
| NCI-H661 | 0.421 | 0.45 | 0.394 | 0.386 | 0.383 | 0.412 | 0.469 | 0.532 | 0.536 | 0.605 | 0.885 | 0.883 | 0.642 | 0.606 | 0.466 | 0.465 | 0.389 | 0.398 | 0.427 |
| NCI-H322M | 0.472 | 0.469 | 0.502 | 0.433 | 0.478 | 0.576 | 0.595 | 0.575 | 0.586 | 0.561 | 1.48 | 1.02 | 1.23 | 0.684 | 0.602 | 0.655 | 0.551 | 0.529 | 0.541 |
| HCC-44 | 1.01 | 0.932 | 0.993 | 0.96 | 0.952 | 0.976 | 0.953 | 0.957 | 1.07 | 0.719 | 1.06 | 0.871 | 0.863 | 1.07 | 1.04 | 0.998 | 0.657 | 0.52 | 0.688 |
| PC-3 [JPC-3] | 0.54 | 0.563 | 0.567 | 0.495 | 0.569 | 0.469 | 0.445 | 0.389 | 0.439 | 0.435 | 0.642 | 0.743 | 0.744 | 0.482 | 0.421 | 0.452 | 0.737 | 0.829 | 0.697 |
| HCC-827 | 0.462 | 0.477 | 0.461 | 0.54 | 0.54 | 0.226 | 0.21 | 0.17 | 0.214 | 0.17 | 1.08 | 0.979 | 1.04 | 0.231 | 0.201 | 0.217 | 1.08 | 1.05 | 1.05 |
| NCI-H1666 | 0.734 | 0.631 | 0.603 | 0.616 | 0.609 | 0.593 | 0.407 | 0.609 | 0.61 | 0.457 | 0.948 | 0.696 | 0.685 | 0.725 | 0.625 | 0.408 | 0.434 | 0.418 | 0.398 |
